Results published in patent US5744499A, “Apoptosis-modulating factors influencing the intracellular concentration of methional/malondialdehyde” (Centre International de Recherches Dermatologiques Galderma, priority 1994, dated 1998).

Experiments:
BAF3-bcl2 cells = test: Induction of DNA fragmentation by methional in BAF3-bcl2 cells ([3H]-thymidine); type: cell-based, mouse
Method: (§1) The cells used were a BAF3 lymphocytic cell line, such as that described above. The BAF3-bcl2 cells corresponded to BAF3 cells transfected by the bcl2 gene. The BAF3-bO cells corresponded to BAF3 cells not transfected by the bcl2 gene. As indicated above, the BAF3-bO cells underwent apoptosis (more than 80% of the cells) in the absence of IL3 for 16 hours. On the other hand, the BAF3-bcl2 cells, which were transfected by the bcl2 gene, evidenced no sign of apoptosis in the absence of IL3. Accordingly, they constituted a good model for determining the apoptosis step blocked in these cells, and its potential correlation with the inhibition of malondialdehyde synthesis.
(§2) The BAF3-bO or BAF3-bcl2 cells were marked by adaptation of the method described in S. Wright et al, J. of Cell. Biochem., 48, 344-355 (1992), by incubating 2.5×10^5 cells/ml with 0.5 μCi [3H]-thymidine for 40 hours at 37° C. After two washings in a culture medium, 2.5×10^6 cells were cultured in the presence of methional. […] The aliquots of the culture medium (1 ml), of the supernatant (0.3 ml), and of the solubilized sediment (0.1 ml) were measured by quantitative analysis in the scintillation counter. The percentage of DNA fragments was calculated in the following manner: […]

BAF3 cells [1] = test: DNA fragmentation in BAF3 cells, spectrofluorometric analysis (Hoechst 33258); type: cell-based, mouse
Method: 3×10^6 BAF3 cells were grown in 6 ml of a culture medium containing IL3 in Petri dishes in the presence of different concentrations (200-800 μM) of methional or […], a substrate of the aldehyde dehydogenase. After 8 hours of contact, the cells were washed three times in a phosphatized buffered saline medium, pH=7.5 (PBS medium). These cells were lysed in 2 ml 0.1% Triton X-100, 20 mM EDTA (ethylenediaminetetraacetic acid), 5 mM Tris pH 8, and then centrifuged at 30,000 g at 4° C. for 30 minutes. The supernatants were decanted and analyzed as indicated below.
For purposes of comparison, the same cultures were grown in a medium, either with IL3 (+IL3) or without IL3 (-IL3).
Spectrofluorometric analysis was carried out to measure the […] of DNA fragments obtained (<3 kilobases). 1 ml of a solution of bisbenzimide trihydrochloride (Hoechst 33258) (1 μg/ml) in 3 mM sodium chloride, 1 mMd4EDTA, 10 mM Tris, pH=8, was added to 2 ml supernatant. The solutions obtained were analyzed by fluorometry (excitation λ=365 nm, emission λ=460 nm). The quantities of DNA were calculated in relation to highly-purified DNA (0.1 to 1 μh in 2 ml lysis buffer) treated as indicated above and expressed in 10^-9 g DNA collected from 3×10^6 cells.

BAF3-bO cells = test: Induction of DNA fragmentation by methional in BAF3-bO cells ([3H]-thymidine); type: cell-based, mouse; conditions: 400 μM methional, 8 hours; control 7%
Method: as §1, §2

HeLa cells = test: Effect of metabolites on the growth of HeLa cells; type: cell-based; conditions: Homo sapiens, 72 h, three days at 37° C., estimated by protein content, average of 3 or 4 experiments, read-out: IC50 (concentration required to inhibit cell growth by 50%)
Method: HeLa cells (0.5×10^6 per Petri dish) were cultured in 3 ml of a minimum essential Eagle medium containing 10% by weight dialyzed fetal calf serum. After four hours, methional (10 μM-1 mM), methionol (10 μM-20 mM), methylthiopropionic acid (MTPA) (1 μM-20 mM), L-methionine (1 μM-20 mM) or 4-methylthio-2-oxobutanoic acid (MTOB) (1 μM-20 mM) were added to each of the three dishes. After three days at 37° C., the cells were washed twice in a buffered, phosphatized saline medium having a pH of 7.5 (PBS medium) and collected in the same type of buffer.
Cell growth was assessed by measuring protein content (see technique described in O. H. Lowry, N. J. Rosebrouh, A. L. Farr, and R. J. Randall, J. Biol. Chem., 193, 265-275 (1951)) or the DNA content in the lysate using a bisbenzimide trihydrochloride solution (Hoechst 33258) (see W. D. Jarvis, R. N. Kolesnick, F. A. Fornari, R. S. Traylor, D. A. Gewirtz, and S. Grant, Proc. Natl. Acad. Sci. USA, 91, 73-77 (1994)), or by determining […] using 3-(4,5-dimethylthiazol-2-yl)-2,5-diphenyl-tetrazolium bromide (MTT) (see T. Mosmann, J. of Immunology, Methods, 65, 55-63 (1983)).
Each value of is the average of 3 or 4 experiments as estimated by protein content.
IC50 represents the concentration of compound required to inhibit cell growth by 50%.

BAF3 cells [2] = test: DNA fragmentation in BAF3 cells, agarose gel electrophoresis; type: cell-based, mouse; conditions: 200-800 μM, medium with IL3, 8 hours
Method: K. L. Collins, J. Marvel, […] A. Lopez-[…]. Exp. Med., 176, 1043-1051 (1992)]. […] After 8 hours of contact, the cells were washed three times in a phosphatized buffered saline medium, pH=7.5 (PBS medium). […] The supernatants were decanted and analyzed as indicated below. For purposes of comparison, the same cultures were grown in a medium, either with IL3 (+IL3) or without IL3 (-IL3). The DNA fragments obtained were analyzed qualitatively using the method described, in particular, in W. D. Jarvis, […], and S. Grant, Proc. Natl. Acad. Sci. USA, 91, 73-77 (1994). The supernatants were treated with ribonuclease A (20 μg/ml) for 1 hour at 37° C., and with the proteinase R (100 μg/ml). The DNA was purified using phenol extraction and precipitated with ethanol. […] After electrophoresis (60V, 3 hours), the gels were stained with ethydium bromide.

[3] = system: murine B16 Fl melanoma cells; test: Survival of mice grafted with B16 melanoma cells; type: in vivo, mouse; conditions: Table 5; three mice; daily injection for 15 days; BCNU 0.1 mg/kg, Compound A 25 mg/kg, Methional 25 mg/kg; control 20.5
Method: At t=0 day, 10^5 murine B16 Fl melanoma cells were injected into B6D2Fl mice (from the IFFA CREDO Company, France).
Table 5 reports the results corresponding to averages of the results obtained on three treated mice.
For the regimens containing multiple compounds, the quantities of each of the compounds used were identical to those of the regimens using the compounds by themselves.
Survival time was recorded beginning at t=0 day, as indicated above.
BCNU corresponds to N,N-Bis(2-chloroethyl)-N-nitrosourea. Compound A corresponds to the compound having formula (9), wherein X is a --OH radical.
Between the two regimens, the latter (to which methional was added) accounted for one-third of the mice surviving more than 60 days. The "average survival time" is the mean of the number of mice dying over the course of the experiment, i.e., within 60 days.
The procedure of the previous example was repeated, but the regimens and numbers of mice treated varied.
With respect to this latter regiment, the quantities corresponded to the quantities of compounds used alone. The percentage of long-term survivors corresponded to the percentage of mice which survived beyond 60 days.

## CSCCC=O [methional, 3-methylthiopropanal]
BAF3-bcl2 cells; 400 μM methional, 8 hours, control 3%
  percentage of DNA fragments (maximum): 7%
BAF3-bcl2 cells; methional 50-400 μM
  elimination of the bcl2 inhibition of apoptosis: did not permit eliminating the inhibition of apoptosis resulting from the bcl2 gene
BAF3 cells [1]; +IL3, 8 hours contact, methional 200-800 μM (concentration not given)
  quantity of DNA fragments (<3 kilobases): 127 10^-9 g DNA/3 × 10^6 cells
BAF3 cells [1]; cells treated with IL3 and methional
  increase in amount of DNA fragments compared with cells without IL3: comparable to the quantity found when the cells were placed in a medium not containing IL3
BAF3-bO cells
  percentage of DNA fragments (maximum): 26%
HeLa cells
  IC50: 100 µM
BAF3 cells [2]
  triggering of apoptosis (ladder of DNA fragments of 180 to 200 base pairs on gel): apoptosis was triggered
[3]
  Average Survival Time: 27 days
